Measured values as given in patent US8012956B2, “Tropane compounds” (Exelixis, Inc., priority 2007, dated 2011).

Each molecule was assayed against HSP90 (Homo sapiens, UniProt P07900) (assay: HSP90 inhibition (HSP90 IC50)).
Format: biochemical

SMILES	IC50 [nM]
NC(=O)c1ccc(C(=O)NC2CC3CCC(C2)N3c2ccc(C(=O)NC3CCCC3)cn2)cc1NCC1CC1 (stereo not drawn) [N4-(8-{5-[(cyclopentylamino)carbonyl]pyridin-2-yl}-8-azabicyclo[3.2.1]oct-3-endo-yl)-2-[(cyclopropylmethyl)amino]benzene-1,4-dicarboxamide]	< 500
CC(C)Nc1cc(C(=O)N[C@H]2C[C@H]3CC[C@@H](C2)N3c2ccc(C(=O)C3CC3)cn2)c(Br)cc1C(N)=O [2-bromo-N-{8-(5-(cyclopropylcarbonyl)pyridin-2-yl]-8-azabicyclo[3.2.1]oct-3-endo-yl}-5-[(1-methylethyl)amino]benzene-1,4-dicarboxamide]	< 500
COc1ccc(CNC(=O)c2ccc(N3[C@@H]4CC[C@H]3C[C@@H](NC(=O)c3cccc(OC)c3C)C4)nc2)cc1OC [N {[3,4-bis(methyloxy)phenyl]methyl}-6-[3-endo-({[2-methyl-3-(methyloxy)phenyl]carbonyl}amino)-8-azabicyclo[3.2.1]oct-8-yl]pyridine-3-carboxamide]	< 500
CCN(CC)CCOc1ccc(CNC(=O)c2ccc(N3[C@@H]4CC[C@H]3C[C@@H](NC(=O)c3cccc(OC)c3C)C4)nc2)cc1 [N-[(4-{[2-(diethylamino)ethyl]oxy}phenyl)methyl]-6-[3-endo-({[2-methyl-3-(methyloxy)phenyl]carbonyl}amino)-8-azabicyclo[3.2.1]oct-8-yl]pyridine-3-carboxamide]	< 500
CCC(CC)Nc1cc(C(=O)NC2CC3CCC(C2)N3c2ccc(C(=O)N[C@@H]3CCN(C(C)C)C3)cn2)ccc1C(N)=O (stereo partly drawn) [2-[(1-ethylpropyl)amino]-N4-{8-[5-({[(3R)-1-(1-methylethyl)pyrrolidin-3-yl]amino}carbonyl)pyridin-2-yl]-8-azabicyclo[3.2.1]oct-3-endo-yl}benzene-1,4-dicarboxamide]	< 500
COc1ccc([C@H](C)NC(=O)c2ccc(N3C4CCC3CC(NC(=O)c3cccc(OC)c3C)C4)nc2)c(F)c1 (stereo partly drawn) [N-{(1S)-1-[2-fluoro-4-(methyloxy)phenyl]ethyl}-6-[3-endo-({[2-methyl-3-(methyloxy)phenyl]carbonyl}amino)-8-azabicyclo[3.2.1]oct-8-yl]pyridine-3-carboxamide]	< 500
COc1cccc(C(=O)N[C@H]2C[C@H]3CC[C@@H](C2)N3c2ccc(C(=O)NCc3ccc(F)cc3)cn2)c1C [N-[(4-fluorophenyl)methyl]-6-[3-endo-({[2-methyl-3-(methyloxy)phenyl]carbonyl}amino)-8-azabicyclo[3.2.1]oct-8-yl]pyridine-3-carboxamide]	< 500
COc1cccc(C(=O)NC2CC3CCC(C2)N3c2ccc(C(=O)N[C@H]3CCCC[C@@H]3O)cn2)c1C (stereo partly drawn) [N-[(1S,2S)-2-hydroxycyclohexyl]-6-[3-endo-({[2-methyl-3-(methyloxy)phenyl]carbonyl}amino)-8-azabicyclo[3.2.1]oct-8-yl]pyridlne-3-carboxamide]	2000 to 10000
CCC(Nc1cc(C(=O)N[C@H]2C[C@H]3CC[C@@H](C2)N3c2ccc(C(=O)C3CC3)cn2)c(C)cc1C(N)=O)C1CC1 (stereo partly drawn) [N-{8-(5-(cyclopropylcarbonyl)pyridin-2-yl]-8-azabicyclo[3.2.1]oct-3-endo-yl}-5-[(1-cyclopropylpropyl)amino]-2-methylbenzene-1,4-dicarboxamide]	< 500
Cc1c(OC(N)=O)cccc1C(=O)N[C@H]1C[C@H]2CC[C@@H](C1)N2c1ccc(C(=O)NCc2ccccc2)cn1 [2-methyl-3-({[8-(5-{[(phenylmethyl)amino]carbonyl}pyridin-2-yl)-8-azabicyclo[3.2.1]oct-3-endo-yl]amino}carbonyl)phenyl carbamate]	2000 to 10000
CNC(=O)[C@@H](NC(=O)c1ccc(N2C3CCC2CC(NC(=O)c2cccc(OC)c2C)C3)nc1)c1ccc(OC)cc1 (stereo partly drawn) [N-{(1S)-2-(methylamino)-1-[4-(methyloxy)phenyl]-2-oxoethyl}-6-[3-endo-({[2-methyl-3-(methyloxy)phenyl]carbonyl}amino)-8-azabicyclo[3.2.1]oct-8-yl]pyridine-3-carboxamide]	500 to 999
CC(=O)c1ccc(N2[C@@H]3CC[C@H]2C[C@@H](NC(=O)c2ccc(C(N)=O)c(Br)c2)C3)nc1 [N4-[8-(5-acetylpyridin-2-yl)-8-azabicyclo[3.2.1]oct-3-endo-yl]-2-bromobenzene-1,4-dicarboxamide]	< 500
CC(=O)c1ccc(N2[C@@H]3CC[C@H]2C[C@@H](NC(=O)c2ccc(C(N)=O)c(NN4CCCCC4)c2)C3)nc1 [N4-[8-(5-acetylpyridin-2-yl)-8-azabicyclo[3.2.1]oct-3-endo-yl]-2-(piperidin-1-ylamino)benzene-1,4-dicarboxamide]	< 500
COc1cccc(C(=O)N[C@H]2C[C@H]3CC[C@@H](C2)N3c2ccc(C(=O)Nc3cccc(Cl)c3)cn2)c1C [N-(3-chlorophenyl)-6-[3-endo-({[2-methyl-3-(methyloxy)phenyl]carbonyl)amino)-8-azabicyclo[3.2.1]oct-8-yl]pyridine-3-carboxamide]	2000 to 10000

Second part, the molecule after the results:

IC50 [nM]	SMILES
< 500	CCC(CC)Nc1cc(C(=O)N[C@H]2C[C@H]3CC[C@@H](C2)N3c2ccc(C(C)=O)cn2)c(C)cc1C(N)=O
< 500	COc1cccc(C(=O)N[C@H]2C[C@H]3CC[C@@H](C2)N3c2ccc(C(=O)NCc3ccc(N4CCN(CC(C)C)CC4)cc3)cn2)c1C [6-[3-endo-({[2-methyl-3-(methyloxy)phenyl]carbonyl}amino)-8-azabicyclo[3.2.1]oct-8-yl]-N-({4-[4-(2-methylpropyl)piperazin-1-yl]phenyl}methyl)pyridine-3-carboxamide]
< 500	COc1cccc(C(=O)NC2CC3CCC(C2)N3c2ccc(C(=O)N[C@@H](C)c3ccc(Cl)cc3)cn2)c1C (stereo partly drawn) [N-[(1S)-1-(4-chlorophenyl)ethyl]-6-[3-endo-({[2-methyl-3-(methyloxy)phenyl]carbonyl}amino)-8-azabicyclo[3.2.1]oct-8-yl]pyridine-3-carboxamide]
< 500	C[C@H](NC(=O)c1ccc(N2[C@@H]3CC[C@H]2C[C@@H](NC(=O)c2ccc(C(N)=O)c(NC4CCN(S(C)(=O)=O)CC4)c2)C3)nc1)c1ccc(N2CCN(C)CC2)cc1 [N4-(8-{5-[({(1S)-1-[4-(4-methylpiperazin-1-yl)phenyl]ethyl}amino)carbonyl]pyridin-n-2-yl}-8-azabicyclo[3.2.1]oct-3-endo-yl)-2-{[1-(methylsulfonyl)piperidin-4-yl]amino}benzene-1,4-dicarboxamide]
2000 to 10000	NC(=O)c1ccc(C(=O)N[C@H]2C[C@H]3CC[C@@H](C2)N3c2ccc(C(=O)CCC(F)(F)F)cn2)cc1NCC1CC1 [2-[(cyclopropylmethyl)amino]-N4-{8-[5-(4,4,4-trifluorobutanoyl)pyridin-2-yl]-8-azabicyclo[3.2.1]oct-3-endo-yl}benzene-1,4-dicarboxamide]
500 to 999	Cc1cc(C(N)=O)cc(C)c1C(=O)N[C@H]1C[C@H]2CC[C@@H](C1)N2c1ccc(C(=O)NCc2ccccc2)cn1 [2,6-dimethyl-N1-[8-(5-{[(phenylmethyl)amino]carbonyl}pyridin-2-yl)-8-azabicyclo[3.2.1]oct-3-endo-yl]benzene-1,4-dicarboxamide]
< 500	COc1ccc(CNC(=O)c2ccc(N3[C@@H]4CC[C@H]3C[C@@H](NC(=O)c3cccc(OC)c3C)C4)nc2)c(Cl)c1 [N-{[2-chloro-4-(methyloxy)phenyl]methyl}-6-[3-endo-({[2-methyl-3-(methyloxy)phenyl]carbonyl}amino)-8-azabicyclo[3.2.1]oct-8-yl]pyridine-3-carboxamide]
< 500	Cc1cc(CO)ccc1C(=O)N[C@H]1C[C@H]2CC[C@@H](C1)N2c1ccc(C(=O)NCc2cccnc2)cn1 [6-[3-endo-({[4-(hydroxymethyl)-2-methylphenyl]carbonyl}amino)-8-azabicyclo[3.2.1]oct-8-yl]-N-(pyridin-3-ylmethyl)pyridine-3-carboxamide]
2000 to 10000	COc1cccc(C(=O)N[C@H]2C[C@H]3CC[C@@H](C2)N3c2ccc(C(=O)NCCO)cn2)c1C [N-(2-hydroxyethyl)-6-[3-endo-({[2-methyl-3-(methyloxy)phenyl]carbonyl}amino)-8-azabicyclo[3.2.1]oct-8-yl]pyridine-3-carboxamide]
